Experimental findings from patent US20240400604A1, “NUCLEOSIDE TRIPHOSPHATE PHOTOAFFINITY PROBE, METHOD FOR PREPARING SAME, AND APPLICATIONS THEREOF” (SHANDONG UNIVERSITY, priority 2023, published 2024) are described below.

For assay [1], the system named is ATP-binding proteins in HEK 293T cell lysates. In words: In-gel fluorescence imaging of HEK 293T cell lysates labeled with the ATP-N probe. Conditions: FIG. 23a, in-gel fluorescence.
The test system is the same in assay [2]. In words: Proteomic LC-MS/MS (LFQ) analysis of HEK 293T cell lysates labeled with the ATP-N probe, ATP competition. Also noted: species or system human. The protocol:
(§1) 1 mg of cell lysate was labeled with 10 μM ATP-N probe. The subsequent steps were the same as in Section 1.3 of Example 3.
(§2) The C18 pre-column (Thermo Fisher, 164564-CMD, 100 μm×2 cm) and analytical column (Thermo Fisher, 164941, 75 μm×25 cm) used in the LC-MS/MS analysis were commercially available. The liquid chromatography (Vanquish Neo, Thermo Fisher) settings were as follows: Solvent A was 98% H2O with 0.1% FA, and Solvent B was 98% ACN with 0.1% FA. The flow rate was 300 nL/min, with the elution gradient as follows: 0 minutes, 2% B; 5 minutes, 26% B; 127 minutes, 36% B; 137 minutes, 72% B; 142 minutes, 80% B; and 143-153 minutes, 80% B. The mass spectrometer (Orbitrap Exploris 480, Thermo Fisher) settings were: full MS scan in positive ion mode, electrospray ion source voltage 1.9 kV, ion transfer tube temperature 320° C., scan m/z range 350-1500, resolution of 120000, AGC target 300%, maximum injection time 25 ms. For dd-MS^2, resolution was 15000, AGC target 50%, maximum injection time was automatically selected, and the cycle time for MS scanning was set to 3 s. DDA mode was used for data acquisition and the data collection time was 0-142 minutes.
The obtained MS raw files were analyzed using Proteome Discoverer 2.5 software, and searched against the Uniprot human protein database (as of November 2022, total proteins: 20401). Enzyme specificity was set to trypsin, cysteine carbamidomethylation was set as a fixed modification, and methionine oxidation and N-terminal acetylation were set as variable modifications.
HEK 293T cell lysates were labeled with 10 μM ATP-N probe. Labeled proteins were enriched with streptavidin beads, and digested with trypsin to prepare peptide samples for LC-MS/MS analysis. Adding 100 μM ATP as the competitor during probe labeling, the labeling of ATP-binding proteins would be interfered. Compared with the probe-labeling group without competitors, more specific ATP-binding proteins could be identified with label-free quantitative (LFQ) analysis.

Assay [3] addresses T1, N-acetylglucosamine kinase (NAGK) (Homo sapiens, UniProt Q9UJ70).
T1 construct: in the samples of HEK 293T cell lysates labeled with the ATP-N probe; endogenous in cells; host or cells: HEK 293T cell lysate
Nature of the assay: Identification of ATP-N probe-modified site by LC-MS/MS. Conditions: near ATP-binding pocket, FIG. 26a. How it is done:
as §1, §2
(§3) The obtained MS raw files were analyzed using Proteome Discoverer 2.5 software, and searched against the Uniprot human protein database (as of November 2022, total proteins: 20401). […]

The target in another assay is T2, VRK1 (Homo sapiens, UniProt Q99986).
T2 construct: in the samples of HEK 293T cell lysates labeled with the ATP-N probe; endogenous in cells; host or cells: HEK 293T cell lysate
T2 sequence (Q99986 1-396): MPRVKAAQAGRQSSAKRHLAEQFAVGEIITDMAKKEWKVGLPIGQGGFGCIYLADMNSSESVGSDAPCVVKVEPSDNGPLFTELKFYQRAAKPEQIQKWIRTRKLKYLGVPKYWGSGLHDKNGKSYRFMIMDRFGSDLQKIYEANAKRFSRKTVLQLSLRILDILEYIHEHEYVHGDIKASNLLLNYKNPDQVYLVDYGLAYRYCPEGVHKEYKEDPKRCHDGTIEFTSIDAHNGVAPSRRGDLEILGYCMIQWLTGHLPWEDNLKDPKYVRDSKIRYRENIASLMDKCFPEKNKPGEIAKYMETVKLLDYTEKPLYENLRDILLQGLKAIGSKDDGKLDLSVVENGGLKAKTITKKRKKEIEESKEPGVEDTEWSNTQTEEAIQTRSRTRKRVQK
Described as above. Conditions: close to ATP-binding pocket, FIG. 26b. How it is done: as §1, §2, §3

Assay [4] concerns ATP-binding proteins, including kinases. In words: Staurosporine competitive ATP-N probe labeling of cell lysates, LC-MS/MS. The arrangement: species or system human. The following applies: staurosporine at 1×, 10×, 20× concentration of the ATP-N probe; one biological replicate. How it is done:
The preparation of mass spectrometry samples was the same as in Section 1.3 of Example 7, except that ATP was replaced with different concentrations of staurosporine.
Prior to probe labeling, cell lysates were pre-incubated on ice with staurosporine at 1×, 10×, and 20× concentration of the ATP-N probe, and compared with the control group without staurosporine treatment. Potential target proteins of kinase inhibitors were screened based on the abundance ratio between the competition group and the control group through LC-MS/MS analysis. Theoretically, as the concentration of the inhibitor increases, the labeling efficiency of its target proteins should gradually decrease. Therefore, proteins were screened based on their abundance ratios ([…]), identifying proteins whose detected abundance decreased with increasing inhibitor concentrations. Proteins with lower confidence were filtered out, leaving proteins that met the criteria for further analysis. Most proteins with reduced labeling efficiency after staurosporine treatment were ATP-binding proteins, including kinases, and this trend increased with higher inhibitor concentrations. […] Since the data presented in this example represent only one biological replicate, there may be some errors. Typically, using the average values and p-values from three biological replicates would yield more reliable results.

Setting [5] is: GO-MF analysis of screened proteins.

T1 sequence (Q9UJ70 whole entry): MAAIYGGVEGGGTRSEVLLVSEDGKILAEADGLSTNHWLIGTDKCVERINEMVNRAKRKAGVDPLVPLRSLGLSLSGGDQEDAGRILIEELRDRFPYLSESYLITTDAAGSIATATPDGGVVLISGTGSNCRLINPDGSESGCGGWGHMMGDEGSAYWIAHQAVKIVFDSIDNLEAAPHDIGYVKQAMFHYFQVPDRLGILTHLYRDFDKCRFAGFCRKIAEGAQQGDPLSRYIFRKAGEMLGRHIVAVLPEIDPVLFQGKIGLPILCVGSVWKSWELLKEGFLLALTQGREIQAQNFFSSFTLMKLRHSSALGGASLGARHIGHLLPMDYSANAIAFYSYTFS

On to `C#CCCC1(CCNP(=O)(O)OP(=O)(O)OP(=O)(O)OC[C@H]2O[C@@H](n3cnc4c(N)ncnc43)C(O)[C@H]2O)N=N1` (stereo partly drawn) [ATP-N probe], for which the “lowest probe concentration showing clear fluorescent bands” value in assay [1] stood at 1 µM. In addition, in assay [2] (10 μM probe, 100 μM ATP, all three replicates, ratio>2, p-value<0.05), the “proteins with significantly decreased intensity in the ATP competition group” value is on record as “More than 160”. In addition, in assay [2] (setting [5]), the “of these, kinases” value is “around 78”; the “of these, previously annotated ATP-binding proteins” value is “approximately 129”; the “share of annotated ATP-binding proteins among all screened proteins” value is on record as “over 80%”. In assay [2] (quantitative analysis of probe-modified peptides, all three replicates, ratio>2, p-value<0.05), the “proteins with significantly decreased intensity in the competition group, probe-modified peptides” value is given as “About 44”. For the same compound, the probe-modified residue entry in assay [3] was “Glu16”. Besides, the probe-labeled residue entry on VRK1 is “Glu73”.

With `CN[C@@H]1C[C@H]2O[C@@](C)([C@@H]1OC)n1c3ccccc3c3c4c(c5c6ccccc6n2c5c31)C(=O)NC4` [staurosporine, Staurosporine], in assay [4], the “proteins with significantly reduced ATP-N probe labeling in the competition group” value was “several known staurosporine targets were identified”.
